Laboratory results as given in patent EP4674965A1, “SIRNA TARGETING INHIBIN ?E, SIRNA CONJUGATE, AND MEDICAL USE THEREOF” (Tuojie Biotech (Shanghai) Co., Ltd., priority 2023, dated 2024).

Tests used:
monkey INHBE = test: Multi-concentration-point inhibitory activity against INHBE in primary monkey hepatocytes (PCHs), qPCR; type: cell-based; conditions: 24 h; for IC50: PCH, monkey INHBE mRNA
Excerpt: (§1) After the Q-PCR assay was completed, the corresponding Ct values were obtained based on the threshold automatically set by the system. The expression of a certain gene can be relatively quantified by comparing the Ct values. Comparing Ct refers to calculating the differences in gene expression by the differences from the Ct value of the internal reference gene, which is also referred to as 2-ΔΔCt, where ΔΔCt = [(Ct target gene in experimental group - Ct internal reference in experimental group) - (Ct target gene in control group - Ct internal reference in control group)]. Inhibition rate (%) = (1 - remaining level of target gene expression) × 100%.
(§2) The results are expressed relative to the remaining percentage of human INHBE mRNA expression in cells treated with the siRNA. The IC50 value corresponds to the concentration of the siRNA used when the remaining percentage of INHBE mRNA expression is 50%.
(§3) 24 h prior to transfection, PCH cells were seeded into a 96-well plate at about 30,000 cells/well, with each well containing 100 µL of a culture medium. The cells were transfected with the samples using Lipofectamine RNAi MAX (ThermoFisher, 13778150) following the instruction manual of the product, with the final concentration gradients of the samples for transfection being 20 nM, 4 nM, 0.8 nM, 0.16 nM, 0.032 nM, 0.0064 nM, and 0.00128 nM. After 24 h of treatment, total cellular RNA extraction was performed using a high-throughput cellular RNA extraction kit (FG0417-L/FG0418-XL, magnetic bead method), followed by an RNA reverse transcription experiment (Takara, RR037A) and a quantitative real-time PCR (Thermo, 4444557) assay. The mRNA level of monkey INHBE was determined and calibrated on the basis of the GAPDH internal reference gene level.
In the real-time quantitative PCR assay, a probe Q-PCR assay was used. Table 15. Taqman primer information
The result analysis method and calculation method for the remaining percentage of the target mRNA expression were the same as those in Example 4.

human INHBE = test: Multi-concentration-point inhibitory activity against INHBE in human hepatoma cell line (Huh7), qPCR; type: cell-based; conditions: for Remaining percentage of target gene mRNA expression (Huh7) (mean, %): Huh7, 24 h; for IC50: Huh7, INHBE mRNA, 24 h
Excerpt: as §1, §2
as §3, with “Huh7” for “PCH”, “15,000” for “30,000”, “human” for “monkey”
The instruments, primer information, and result analysis method involved in this experiment were used with reference to Example 4.

| Substance | Remaining percentage of target gene mRNA expression (PCH) (mean, %) (monkey INHBE; 0.00128 (nM per method)) [%] | Remaining percentage of target gene mRNA expression (PCH) (mean, %) (monkey INHBE; 0.0064 (nM per method)) [%] | Remaining percentage of target gene mRNA expression (PCH) (mean, %) (monkey INHBE; 0.032 (nM per method)) [%] | Remaining percentage of target gene mRNA expression (PCH) (mean, %) (monkey INHBE; 0.16 (nM per method)) [%] | Remaining percentage of target gene mRNA expression (PCH) (mean, %) (monkey INHBE; 0.8 (nM per method)) [%] | Remaining percentage of target gene mRNA expression (PCH) (mean, %) (monkey INHBE; 4 (nM per method)) [%] | Remaining percentage of target gene mRNA expression (PCH) (mean, %) (monkey INHBE; 20 (nM per method)) [%] | IC50 (monkey INHBE) [pM] | Remaining percentage of target gene mRNA expression (Huh7) (mean, %) (human INHBE; 0.00128 (nM per method)) [%] | Remaining percentage of target gene mRNA expression (Huh7) (mean, %) (human INHBE; 0.0064 (nM per method)) [%] | Remaining percentage of target gene mRNA expression (Huh7) (mean, %) (human INHBE; 0.032 (nM per method)) [%] | Remaining percentage of target gene mRNA expression (Huh7) (mean, %) (human INHBE; 0.16 (nM per method)) [%] | Remaining percentage of target gene mRNA expression (Huh7) (mean, %) (human INHBE; 0.8 (nM per method)) [%] | Remaining percentage of target gene mRNA expression (Huh7) (mean, %) (human INHBE; 4 (nM per method)) [%] | Remaining percentage of target gene mRNA expression (Huh7) (mean, %) (human INHBE; 20 (nM per method)) [%] | IC50 (human INHBE) [pM] |
| --- | --- | --- | --- | --- | --- | --- | --- | --- | --- | --- | --- | --- | --- | --- | --- | --- |
| TJR102152: siRNA conjugate (Tables 14, 16); SS SEQ ID NO: 245, AS SEQ ID NO: 269 (sense UAAUAAUACUAACAUGUUA; antisense UAACAUGUUAGUAUUAUUAUG; conjugate ligand attached, 2'-OMe/2'-F pattern not given here) | 104.56 | 77.88 | 49.77 | 43.37 | 49.75 | 46.38 | 39.63 | 30.2 | 108.45 | 109.51 | 98.76 | 76.27 | 51.25 | 37.74 | 25.82 | 920 |
| TJR102154: siRNA conjugate (Tables 14, 16); SS SEQ ID NO: 243, AS SEQ ID NO: 267 (sense UCAAAGCUAUUUUCAUAAU; antisense AUUAUGAAAAUAGCUUUGACU; conjugate ligand attached, 2'-OMe/2'-F pattern not given here) | 85.05 | 96.98 | 72.01 | 50.20 | 47.38 | 51.47 | 58.66 | 40 | 103.41 | 100.81 | 91.17 | 50.85 | 32.23 | 30.29 | 20.46 | 176 |
